From US6643591B1, “Use of computational and experimental data to model organic compound reactivity in cytochrome P450 mediated reactions and to optimize the design of pharmaceuticals” (University of Pittsburgh, priority 1998, dated 2003)
“And” between values parts separate entries of the source, which are not always exact repeats. Equal entries are not always repeated. Where two headings read alike, the source gives them in different places. Marks after values point to notes of the source that are not given here.

What was measured:
[1] = molecular target: T1, CYP1A2 (Homo sapiens, UniProt P05177); details: pH 7.4
T1 sequence (P05177 1-516): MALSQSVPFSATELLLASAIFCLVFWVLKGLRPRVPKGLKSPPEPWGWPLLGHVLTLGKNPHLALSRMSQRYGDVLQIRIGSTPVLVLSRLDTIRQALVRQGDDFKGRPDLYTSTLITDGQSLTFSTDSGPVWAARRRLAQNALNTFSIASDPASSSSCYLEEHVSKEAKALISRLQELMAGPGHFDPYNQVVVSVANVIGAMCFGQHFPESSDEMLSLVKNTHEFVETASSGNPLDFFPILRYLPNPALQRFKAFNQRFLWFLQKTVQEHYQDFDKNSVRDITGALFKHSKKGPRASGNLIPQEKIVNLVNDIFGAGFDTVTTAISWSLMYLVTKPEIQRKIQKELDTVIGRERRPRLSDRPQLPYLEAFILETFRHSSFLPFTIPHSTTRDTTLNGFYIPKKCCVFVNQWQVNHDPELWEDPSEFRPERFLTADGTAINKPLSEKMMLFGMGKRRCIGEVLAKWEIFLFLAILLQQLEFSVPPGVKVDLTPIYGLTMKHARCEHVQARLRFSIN

[2] = molecular target: T2, CYP2B1 (Rattus norvegicus, UniProt P00176)
T2 sequence (P00176 1-491): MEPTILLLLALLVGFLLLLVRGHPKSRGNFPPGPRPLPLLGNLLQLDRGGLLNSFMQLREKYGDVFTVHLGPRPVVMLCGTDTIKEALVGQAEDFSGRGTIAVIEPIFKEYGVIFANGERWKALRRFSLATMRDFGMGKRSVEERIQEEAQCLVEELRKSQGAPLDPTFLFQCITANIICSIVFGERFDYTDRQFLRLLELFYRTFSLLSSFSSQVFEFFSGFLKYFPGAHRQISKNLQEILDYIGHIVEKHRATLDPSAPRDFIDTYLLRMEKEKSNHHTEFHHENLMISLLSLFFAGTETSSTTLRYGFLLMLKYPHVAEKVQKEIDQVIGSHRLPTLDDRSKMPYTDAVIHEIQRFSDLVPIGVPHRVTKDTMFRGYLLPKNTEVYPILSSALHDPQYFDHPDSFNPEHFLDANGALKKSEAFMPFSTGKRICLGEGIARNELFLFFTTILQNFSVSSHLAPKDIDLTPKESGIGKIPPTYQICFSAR

[3] = molecular target: T3, CYP2B6 (Homo sapiens, UniProt P20813); details: human, pH 7.4
T3 sequence (P20813 1-491): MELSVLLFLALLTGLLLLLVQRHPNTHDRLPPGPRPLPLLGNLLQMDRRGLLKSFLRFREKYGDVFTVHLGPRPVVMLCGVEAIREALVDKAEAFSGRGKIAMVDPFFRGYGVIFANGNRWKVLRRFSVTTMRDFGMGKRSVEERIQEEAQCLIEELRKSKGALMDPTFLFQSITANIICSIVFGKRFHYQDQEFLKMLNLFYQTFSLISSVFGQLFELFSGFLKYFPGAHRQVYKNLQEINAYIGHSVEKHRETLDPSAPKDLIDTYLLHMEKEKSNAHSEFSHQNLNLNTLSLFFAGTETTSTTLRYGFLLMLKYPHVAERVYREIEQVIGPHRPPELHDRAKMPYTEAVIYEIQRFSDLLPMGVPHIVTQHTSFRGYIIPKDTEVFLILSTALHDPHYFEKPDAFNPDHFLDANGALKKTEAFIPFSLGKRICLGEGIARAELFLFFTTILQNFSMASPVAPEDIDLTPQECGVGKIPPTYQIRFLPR

[4] = molecular target: CYP2C9 (Homo sapiens, UniProt P11712); details: human, pH 7.4
CYP2C9, sequence (P11712 whole entry): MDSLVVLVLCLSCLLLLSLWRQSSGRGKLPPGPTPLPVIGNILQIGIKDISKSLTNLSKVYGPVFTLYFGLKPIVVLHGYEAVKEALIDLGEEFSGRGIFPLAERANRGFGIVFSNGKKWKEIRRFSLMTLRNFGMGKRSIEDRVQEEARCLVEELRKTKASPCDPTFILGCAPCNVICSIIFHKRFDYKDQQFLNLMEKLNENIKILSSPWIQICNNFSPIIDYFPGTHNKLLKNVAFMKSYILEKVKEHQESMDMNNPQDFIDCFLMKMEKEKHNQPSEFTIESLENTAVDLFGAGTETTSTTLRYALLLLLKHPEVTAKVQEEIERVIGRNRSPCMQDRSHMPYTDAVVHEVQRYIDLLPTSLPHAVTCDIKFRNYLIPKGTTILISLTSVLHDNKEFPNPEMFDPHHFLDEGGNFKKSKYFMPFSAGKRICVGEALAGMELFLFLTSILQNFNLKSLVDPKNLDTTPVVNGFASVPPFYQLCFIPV

[5] = molecular target: CYP2E1 (Homo sapiens, UniProt P05181); details: pH 7.4
CYP2E1, sequence (P05181 whole entry): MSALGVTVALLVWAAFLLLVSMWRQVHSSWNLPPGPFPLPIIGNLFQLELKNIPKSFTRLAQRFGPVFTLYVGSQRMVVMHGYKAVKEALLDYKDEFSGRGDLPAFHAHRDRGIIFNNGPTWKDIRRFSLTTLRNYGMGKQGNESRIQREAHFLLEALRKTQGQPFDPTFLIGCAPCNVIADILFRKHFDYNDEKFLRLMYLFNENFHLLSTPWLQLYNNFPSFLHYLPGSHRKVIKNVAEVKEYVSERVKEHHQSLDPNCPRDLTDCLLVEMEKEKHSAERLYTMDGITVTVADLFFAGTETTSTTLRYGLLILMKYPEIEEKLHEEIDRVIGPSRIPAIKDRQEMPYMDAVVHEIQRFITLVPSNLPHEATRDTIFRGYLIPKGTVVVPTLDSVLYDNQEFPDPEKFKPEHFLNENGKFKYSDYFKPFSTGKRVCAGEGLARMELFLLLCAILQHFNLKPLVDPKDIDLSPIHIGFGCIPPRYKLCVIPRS

[6] = molecular target: CYP4B1 (Oryctolagus cuniculus, UniProt P15128)
CYP4B1, sequence (P15128 whole entry, canonical isoform): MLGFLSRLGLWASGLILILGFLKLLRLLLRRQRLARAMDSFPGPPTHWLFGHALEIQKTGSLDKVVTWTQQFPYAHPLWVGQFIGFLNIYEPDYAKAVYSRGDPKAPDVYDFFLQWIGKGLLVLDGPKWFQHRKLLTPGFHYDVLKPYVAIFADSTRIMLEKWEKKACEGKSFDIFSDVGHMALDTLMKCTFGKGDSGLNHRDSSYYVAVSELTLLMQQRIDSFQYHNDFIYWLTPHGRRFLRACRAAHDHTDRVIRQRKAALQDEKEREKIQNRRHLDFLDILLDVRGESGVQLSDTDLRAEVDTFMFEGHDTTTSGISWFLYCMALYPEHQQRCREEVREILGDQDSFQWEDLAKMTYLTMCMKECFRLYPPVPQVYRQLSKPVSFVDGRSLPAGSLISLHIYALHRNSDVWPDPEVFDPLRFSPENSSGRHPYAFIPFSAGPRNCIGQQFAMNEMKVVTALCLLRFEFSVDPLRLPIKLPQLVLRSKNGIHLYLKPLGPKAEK

[7] = tested on: multiple CYP isoforms; details: for P, calculated primary KIE, average / S, calculated secondary KIE, average: Avg over isoforms with unmasked KIE; for INTER KIE, average: Avg over isoforms with unmasked KIE (p-MA: 1A2, 2B1, 2B6, 2E1; o-MA: six isoforms; α-ClMpX: 1A2, 2B1, 2B6); for Intramolecular KIE, average: Avg over the CYP isoforms tested; for Intramolecular KIE, range of values: range over the CYP isoforms tested

COc1ccccc1C [o-Methylanisole, o-methylanisole]
INTER KIE (combined intermolecular competitive KIE) [1]: 9.15
Intramolecular KIE (kH/kD) [1]: 5.7
Metabolite profile, Phenol [1]: 54 Mol-%
Metabolite profile, o-CR [1]: 12 Mol-%
Metabolite profile, o-MBA [1]: 34 Mol-%
P, calculated primary KIE [1]: 6.7
Ratio of ring hydroxylation para to the methoxy group to ODAlk [1]: 4.5
S, calculated secondary KIE [1]: 1.17
nmol 4M3MPh [1]: 9.7* nmol
nmol TP [1]: 18.0 nmol
nmol o-CR [1]: 2.2* nmol
nmol o-MBA [1]: 6.1* nmol
INTER KIE (combined intermolecular competitive KIE) [2]: 9.3
Intramolecular KIE (kH/kD) [2]: 5.78
P, calculated primary KIE [2]: 6.8
S, calculated secondary KIE [2]: 1.2
Metabolite profile, Phenol ([2]; rat, pH 7.4): 63 Mol-%
Metabolite profile, o-CR ([2]; rat, pH 7.4): 18 Mol-%
Metabolite profile, o-MBA ([2]; rat, pH 7.4): 19 Mol-%
Ratio of ring hydroxylation para to the methoxy group to ODAlk ([2]; rat, pH 7.4): 3.5
nmol 4M3MPh ([2]; rat, pH 7.4): 9.1* nmol
nmol TP ([2]; rat, pH 7.4): 13* nmol
nmol o-CR ([2]; rat, pH 7.4): 2.3* nmol
nmol o-MBA ([2]; rat, pH 7.4): 2.37* nmol
INTER KIE (combined intermolecular competitive KIE) [3]: 10.43
Intramolecular KIE (kH/kD) [3]: 6.78
Metabolite profile, o-CR [3]: 56 Mol-%
Metabolite profile, o-MBA [3]: 29 Mol-%
P, calculated primary KIE [3]: 7.8
Ratio ODAlk:Arom [3]: 0.3
S, calculated secondary KIE [3]: 1.15
nmol 4M3MPh [3]: 2.8 nmol
nmol TP [3]: 19 nmol
nmol o-CR [3]: 10.7* nmol
nmol o-MBA [3]: 5.5* nmol
INTER KIE (combined intermolecular competitive KIE) [4]: 12
Intramolecular KIE (kH/kD) [4]: 6.3
Metabolite profile, Phenol [4]: 32 Mol-%
Metabolite profile, o-CR [4]: 22 Mol-%
Metabolite profile, o-MBA [4]: 46 Mol-%
P, calculated primary KIE [4]: 8
Ratio of ring hydroxylation para to the methoxy group to ODAlk [4]: 1.5
S, calculated secondary KIE [4]: 1.2
nmol TP [4]: 6.9* nmol
nmol o-CR [4]: 1.5* nmol
nmol o-MBA [4]: 3.1* nmol
INTER KIE (combined intermolecular competitive KIE) [5]: 10
Intramolecular KIE (kH/kD) [5]: 5.95
Metabolite profile, Phenol [5]: 57 Mol-%
Metabolite profile, o-CR [5]: 16 Mol-%
Metabolite profile, o-MBA [5]: 27 Mol-%
P, calculated primary KIE [5]: 7.1
Ratio of ring hydroxylation para to the methoxy group to ODAlk [5]: 3.5
S, calculated secondary KIE [5]: 1.19
nmol 4M3MPh [5]: 13* nmol
nmol TP [5]: 23* nmol
nmol o-CR [5]: 3.8* nmol
nmol o-MBA [5]: 6.1* nmol
INTER KIE (combined intermolecular competitive KIE) [6]: 14.94
Intramolecular KIE (kH/kD) [6]: 6.90
P, calculated primary KIE [6]: 8.9
S, calculated secondary KIE [6]: 1.29
Metabolite profile, o-CR ([6]; pH 7.4): 59 Mol-%
Metabolite profile, o-MBA ([6]; pH 7.4): 39 Mol-%
Ratio ODAlk:Arom ([6]; pH 7.4): 0.03
nmol 4M3MPh ([6]; pH 7.4): 1.1* nmol
nmol TP ([6]; pH 7.4): 48 nmol
nmol o-CR ([6]; pH 7.4): 29* nmol
nmol o-MBA ([6]; pH 7.4): 18.7* nmol
ΔΔG^‡ corresponding to regioselectivity BzH:ODAlk [7]: 0.1-0.65
Ring hydroxylation products, share of total products ([7]; 20 min, […], pH 7.4): 30-60%
P, calculated primary KIE, average [7]: 8
S, calculated secondary KIE, average [7]: 1.2
INTER KIE, average [7]: 11
INTER KIE, average ([7]; listed as o-MA): 11±3
P, calculated primary KIE, average ([7]; listed as o-MA): 8±3
S, calculated secondary KIE, average ([7]; listed as o-MA): 1.2±0.4
Intramolecular KIE, average [7]: 6.2
Intramolecular KIE, average ([7]; listed as o-MA): 6.2±0.6
Intramolecular KIE, range of values [7]: 5.7-6.9
P (primary KIE), range ([7]; range over the isoforms): 6.7-8.9
S (secondary KIE), range ([7]; range over the isoforms): 1.15-1.29
Regioselectivity BzH:ODAlk, range ([7]; range over the isoforms, listed as o-MA): 1.2-2.9

COc1ccc(C)cc1 [p-Methylanisole, p-methylanisole]
INTER KIE (combined intermolecular competitive KIE) [1]: 5.9
P, calculated primary KIE [1]: 5.0
S, calculated secondary KIE [1]: 1.08
INTER KIE (combined intermolecular competitive KIE) [2]: 5.8
Intramolecular KIE (kH/kD) [2]: 3.69
P, calculated primary KIE [2]: 4.3
S, calculated secondary KIE [2]: 1.16
nmol p-CR ([2]; rat, pH 7.4): 2.0* nmol
nmol p-MBA ([2]; rat, pH 7.4): 4.2* nmol
nmol total TP ([2]; rat, pH 7.4): 6.2* nmol
INTER KIE (combined intermolecular competitive KIE) [3]: 6.8
Intramolecular KIE (kH/kD) [3]: 3.74
P, calculated primary KIE [3]: 4.6
S, calculated secondary KIE [3]: 1.22
nmol p-CR [3]: 2.10* nmol
nmol p-MBA [3]: 7.0* nmol
nmol total TP [3]: 9.1 nmol
INTER KIE (combined intermolecular competitive KIE) [4]: 2.6
INTER KIE (combined intermolecular competitive KIE) [5]: 6.6
Intermolecular Competitive ^D(V/K) [5]: 2.57 ± 0.02
Intermolecular Noncompetitive ^D(V/K) [5]: 2.60 ± 0.01
Intermolecular Noncompetitive ^DV [5]: 2.28 ± 0.10
P, calculated primary KIE [5]: 4.9
S, calculated secondary KIE [5]: 1.16
nmol p-CR [5]: 5.6* nmol
nmol p-MBA [5]: 23.8* nmol
nmol total TP [5]: 29.4 nmol
INTER KIE (combined intermolecular competitive KIE) [6]: 1.4 and 1.42
Intramolecular KIE (kH/kD) [6]: 6.08
nmol p-CR ([6]; pH 7.4): 48* nmol
nmol p-MBA ([6]; pH 7.4): 63* nmol
nmol total TP ([6]; pH 7.4): 111* nmol
P, calculated primary KIE, average [7]: 5
S, calculated secondary KIE, average [7]: 1.2
INTER KIE, average [7]: 6
INTER KIE, average ([7]; listed as p-MA): 6±1
P, calculated primary KIE, average ([7]; listed as p-MA): 5±1
S, calculated secondary KIE, average ([7]; listed as p-MA): 1.15±0.22
Intramolecular KIE, average [7]: 4.4
Intramolecular KIE, average ([7]; listed as p-MA): 4.4±0.3
Intramolecular KIE, range of values [7]: 3.69-6.08
Combined intermolecular competitive KIE, range ([7]; range over the isoforms): 5.9-6.8
P (primary KIE), range ([7]; range over the isoforms): 4.3-5.0
S (secondary KIE), range ([7]; range over the isoforms): 1.08-1.22
